These results are taken from US20240173375A1, “CHEMOTACTIC AUTOPHAGY-INHIBITING PEPTIDE, COMPOSITIONS AND METHODS RELATED THERETO” (Biotempt B.V., priority 2021, published 2024).

The subject of experiment [1] is p38 MAPK. The experiment can be described thus: FPR-signaling assay: p38 MAPK phosphorylation in FPR-expressing cells stimulated with fMLP. The format is cell-based. The text has this:
(§1) Both AQGV (SEQ ID NO:11) peptide effects on p38 and PKB-mediated signalling last for the full 600 seconds tested whereas the other kinases tested were not affected throughout. […] The pathway is governing the balance between proteolysis and proteogenesis regulating cytoskeleton changes affecting vascular permeability. It is shown that an autophagy-inhibiting peptide reduces p38 MAPK kinase activated changes as well as reduces PI3K/AKT/mTOR activated induced changes in cell cytoskeleton reorganization affecting endothelial cell contraction and adverse vascular permeability. Autophagy-inhibiting peptide is useful and capable of addressing adverse vascular permeability, such as manifested by edema with vascular leakage, adverse leukocyte extravasation and hypotension, tissue injury and immune responses in human subjects.

The subject of experiment [2] is PKB (also known as AKT). The experiment can be described thus: FPR-signaling assay: PKB (AKT) phosphorylation in FPR-expressing cells stimulated with fMLP. Format: cell-based. From the text:
The pathway is governing the balance between proteolysis and proteogenesis regulating cytoskeleton changes affecting vascular permeability.

For experiment [3], the system named is STAT3, JNK and P42/p44MAPK/ERK1,2 kinases. The experiment can be described thus: FPR-signaling assay: STAT3, JNK and P42/p44MAPK/ERK1,2 phosphorylation in FPR-expressing cells. Particulars: throughout 600 seconds. Format: cell-based.
Text: as §1

For experiment [4] the following is noted: cited from earlier work.
For experiment [5] the following is noted: 50 mg/kg twice daily i.p.; cited from earlier work.
For experiment [6] the following is noted: cited from earlier work. The source holds these as a separate data set.

Turning to AQGV (tetrapeptide), the “effect on p38/p38-MK2-HSP27 and/or PI3K/AKT/mTOR pathways” value in experiment [1] (formyl-peptide related signaling) was “attenuate”. Further, in experiment [1] (full period tested), the “duration of peptide effects on p38-mediated signalling” value stood at 600 s. In addition, in experiment [1] (peptide at 20 ng/ml or 50 ng/ml, fMLP stimulation), the “time at which peptide effects on p38 MAPK are detected after FPR-stimulation” value stood at 30 s. Moreover, the “time at which peptide effects on PKB(AKT) follow after FPR-stimulation” value in experiment [2] (bi-phasic pattern, peptide at 20 ng/ml or 50 ng/ml, fMLP stimulation) turned out to be 300 s. The “duration of peptide effects on PKB-mediated signalling” value in experiment [2] (full period tested) turned out to be 600 s. In addition, the “peptide effect on the other kinases tested” value in experiment [3] is “not affected”. Moreover, the survival entry in experiment [4] (20-50 mg/kg twice daily i.p. for four days, started 24 hours after IRI, dose dependent) is “markedly improved”. In addition, in experiment [4] (four weeks after IRI, renal tissue), the “CTGF up-regulation, marker of post-ischemic fibrosis” value is on record as “significantly less”. Moreover, the “tubular epithelial cell proliferation” value in experiment [4] (mouse, in vivo) was “significantly enhanced”. Moreover, the acute tubular injury entry in experiment [4] (two days after IRI) was “diminished”. Also, in experiment [5], the “renal function and allograft survival” value is given as “improved”. The “endotoxin induced increase in plasma levels of cytokines and adhesion molecule VCAM-1” value in experiment [6] (180 mg/kg (the highest dose)) is reported as “significant attenuation”. Further, the “fever and flu-like symptoms” value in experiment [6] (the highest dose) is “reduced”.
